Measured values reported in patent US20200030288A1, “STATIN FOR PREVENTION/REDUCTION OF ISCHEMIA-RELATED DAMAGE” (Fundacio Institut De Recerca De L'Hospial De La Santa Creu …, priority 2017, published 2020).
Each block holds one compound with its values, some of them ahead of it.

Key:
[1] = tested on: mouse model for myocardial ischemia; test: Mouse model of myocardial ischemia by coronary ligation: infarct size and 8-OH-dG oxidative damage; format: in vivo, Male CH3 mice; settings: single i.p. dose 15 min after coronary ligation, 45 min ischemia; for reduction of size of infarction (% of total LV wall): vs vehicle-control
Experimental: (§1) Complete LAD coronary artery ligation was performed as follows. Male CH3 mice (8-10 weeks old, weighing 25-30 g) were intubated and anesthesized with a mixture of O2/isoflurane and mechanically ventilated (rate 90 breaths/min, tidal volume 0.1 mL). Rectal temperature was continuously monitored throughout the surgery and maintained within 37-38° C. using a heat pad and heat lamp. An anterior thoracotomy was performed; the heart was exposed and the LAD coronary artery was occluded with an intramural stitch (7-0 silk suture; consistent ligation of the left coronary artery as it emerges from under the left atrium) for 45 minutes. Success of complete coronary ligation was verified by electrocardiographic visualization of the ST-elevation-MI pattern that was monitored by high frequency ultrasounds with the Vevo2100 from Visualsonics and by the visualization of a pale, hypokinetic ventricle distal to the site of occlusion.
Ischemia was continued for another 30 min after administration of the single dose (i.e. altogether 45 min of ischemia), then mice were sacrificed and the heart was carefully excised for infarct size analysis.
(§2) Infarct size was determined by morphometric analysis. For this purpose, all mouse hearts were immersed in fixative solution (4% paraformaldehyde), embedded in OCT compound and cross-sectioned from apex to base (10 μm thick sections 200 μm distanced). Sections were stained with haematoxylin and eosin and morphometric infarct size analysis was determined using image analysis software (ImageJ, NIH). Infarct size was calculated by the sum of myocardial infarct areas between sections and expressed as a percentage of total LV wall. Three measurements per section were determined.
In addition, myocardial oxidative damage was also assessed. For this purpose, ischemic myocardial tissue was cut into 5-μm-thick slices for 8-OH-dG (Abcam ab48508) staining, a measurement indicative of oxidative stress-induced DNA-damage. Staining was calculated by a single blinded observer from an average of 5-fields/animal as % of stained area. Images were captured by Nikon Eclipse 80i microscope and digitized by Retiga 1300i Fast camera.

[2] = tested on: mouse model of myocardial ischemia; test: Mouse coronary ligation model with AMPK inhibitor given before atorvastatin; format: in vivo, mice; settings: Compound C 30 mg/kg i.p. prior to atorvastatin 0.3 mg/kg at 15 min of ischemia; 45 min ischemia
Experimental: as §1
as §2, with “For this purpose, all mouse hearts were immersed in fixative solution (4% paraformaldehyde), embedded in OCT compound and cross-sectioned from apex to base (10 μm thick sections 200 μm distanced).” left out
In addition, myocardial oxidative damage was also assessed. […]

RhoA = RhoA total and cytosolic/membrane fractions in ischemic myocardium by Western blot; format: in vivo, pigs
Experimental: After the ischemic period, the animals' hearts were arrested with potassium chloride and rapidly excised. […] In addition, the separation of the membrane and cytosolic fractions was performed by a modification of the lysis buffer protocol. Briefly, tissue powder was homogenized (1 mol/L NaCl, 20 mmol/L Tris pH 7.4, 1 mmol/L DTT and protease inhibitors) and centrifuged. The supernatant was collected (referred to as the cytosolic fraction) and pellets were resuspended, and the membrane proteins were extracted by incubation in 500 mmol/L Tris-HCl pH 7.4, 20% sodium dodecyl sulfate, 100 mmol/L sodium orthovanadate, and protease inhibitors. The extract was centrifuged and the supernatant was collected as the membrane fraction.
Protein concentration (in total myocardial tissue, in the cytoplasm fraction and in the membrane fraction) was quantified by the Pierce method. RhoA (Santa Cruz) was determined in total and cytosolic and membrane fractions of the ischemic cardiac tissue of all animals by Western Blot analysis. The intensity of the Western blot bands was detected with Chemi-Doc (Bio-Rad) and they were quantified with the Quantity one Software (Bio-Rad). Intensities are expressed in arbitrary units (AU).

caspase-3 = test: Caspase-3 activation (cleaved / total caspase-3) in pig myocardium by Western blot; format: in vivo, pigs
Experimental: Myocardial tissue of all pigs included in Example 1 and Example 2 was obtained, pulverized and processed with lysis buffer for protein isolation as detailed in Example 6. Protein was quantified by the Pierce method and Western Blot analysis was performed to assess the levels of phosphorylated p53 (Ser15), total p53, cleaved caspase-3 and total caspase-3. The ratios phosphorylated p53/total p53 and cleaved Casp3/total caspase3 were calculated to ascertain how much of protein was activated.

[3] = tested on: hypercholesterolemic pigs with myocardial ischemia; test: Neutrophil infiltration (anti-Neutrophil Elastase staining) in ischemic myocardium of hypercholesterolemic pigs; format: in vivo; settings: single i.v. dose 15 min after onset of ischemia, vs controls
Experimental: To this end, ischemic myocardial tissue of all hypercholesterolemic pigs included in Example 12 was obtained, embedded in OCT, and stained for neutrophils detection (anti-Neutrophil Elastase; Abcam). Staining was calculated by a single blinded observer from an average of 5-fields/animal as % of stained area. Images were captured by Nikon Eclipse 80i microscope and digitized by Retiga 1300i Fast camera.

eNOS = eNOS activation (P-eNOS Ser1177 / total eNOS) in pig myocardium by Western blot; format: in vivo, pigs; settings: ischemic myocardium
Excerpt: (P-eNOS) or activated eNOS.

MCP-1/CCL2 = MCP-1/CCL2 mRNA and protein expression in pig myocardium; format: in vivo, pigs
Experimental: The myocardium of pigs included in Example 1 and Example 2 was obtained, pulverized and processed with Tripure or lyses buffer for mRNA and protein isolation as detailed in Example 5 and Example 6, respectively. Both the mRNA levels and protein expression of MCP-1 were assessed. The threshold cycle (Ct) values were determined and normalized to the housekeeping gene 18 SrRNA in order to adjust for equal amounts of RNA whereas β-actin was used as protein loading control.

rat model for ischemia = test: Rat model of myocardial infarction by coronary ligation: scar size 30 days after ischemia; format: in vivo, male SD rats; settings: single dose 0.3 mg/kg 15 min after onset of ischemia; 30 days post-ischemia induction; vs vehicle-controls
Experimental: The study was performed in male SD rats (8-10 weeks old, weighing 250-300 g; Jackson Laboratory). MI was induced by LAD coronary artery ligation for 45 min. […] Afterwards hearts were carefully excised for morphometric assessment of infarct size.

[4] = tested on: hypercholesterolemic pigs with myocardial ischemia; test: Hypercholesterolemic pigs, 90 min LAD balloon occlusion: early cardiac damage markers; format: in vivo; settings: 0.3 mg/kg i.v. at 15 min of ischemia
Experimental: To this end, 14 pigs were fed for 10 days a Western-type hypercholesterolemic diet [20%-saturated fat (beef tallow), 2%-cholesterol, 1%-cholic acid]. This hyperlipidemic diet contains 24.82% proteins, 64.20%of carbohydrates, 10.98% of fats and 16,834.7 kJ.
After this 10 day diet period animals underwent a closed-chest 90 min mid-left anterior descending (LAD) coronary balloon occlusion and the same experimental design described in Example 1.

[5] = tested on: TLR4, TF and MCP-1 in PBMC; test: TLR4, TF and MCP-1 expression in circulating PBMC of ischemic pigs; format: in vivo
Experimental: Blood samples were also collected in EDTA at baseline (prior to ischemia) and after 90 min of ischemia from the femoral artery for PBMC isolation by the Ficoll method. To this end, 20 ml of blood were collected into EDTA tubes at three tested time-points (0, 30, and 90 min) in all animals. All blood samples were immediately subjected to Ficoll-paque Plus (Amersham Biosciences) density gradient centrifugation to isolate PBMCs. Samples were counted and then directly frozen in liquid nitrogen and stored at −80° C. until mRNA and protein isolation as described in Example 5 and Example 6. The mRNA expression level of the inflammatory markers related to innate immunity TLR4 (Toll-like receptor 4) and MCP-1, as well as […] (tissue factor) were determined by Real Time PCR analyses whereas protein expression of MCP-1 was also assessed. The threshold cycle (Ct) values were determined and normalized to the housekeeping gene 18SrRNA in order to adjust for equal amounts of RNA whereas Ponceau red was used for protein loading control.

AMPK = AMPK activation (P-AMPK Thr172 / total AMPK) in pig myocardium by Western blot; settings: for levels of P-AMPK: vs controls
[6] = tested on: swine model of myocardial ischemia; settings: 0.3 mg/kg i.v. at 15 min of ischemia
Excerpt: Cardiac rhythm, arterial oxymetry, and arterial pressure were continuously monitored during the procedure. Just before starting the procedure a perfusion of amiodarone and lidocaine was initiated as prophylaxis for malignant left ventricular arrhythmias. All animals of the study were subjected to the same antiarrhythmic pharmacological approach allowing a direct comparison between the groups. By percutaneous approach and fluoroscopy guidance ischemia was induced by complete coronary balloon occlusion of the mid-left anterior descending coronary artery. Contrast angiographies were performed to ensure total coronary occlusion.
Control animals were given intravenous placebo (saline) at 15 min of ischemia. Blood samples (serum) for further assessment of biomarkers of cardiac damage were taken at baseline (i.e. before MI induction or at time=0 min), and at 30 min, 60 min and 90 min after MI induction (ischemia).
Upon taking the 90 min blood sample, the pigs were sacrificed without reperfusion to obtain myocardial tissue for molecular studies and histology.
The concentration of IMA (Ischemic Modified Albumin), CFABP (Cardiac Fatty Acid Binding Protein) and Myoglobin was determined by the respective pig ELISA kits in the blood samples taken 30 min, 60 min and 90 min after MI induction and compared to their baseline values (prior to ischemia induction). These proteins were chosen based on the rationale that they are early markers for cardiac damage assessment due to ischemia.

[7] = tested on: pig model of ischemia and reperfusion; test: Pig model of ischemia and reperfusion (hypercholesterolemic diet, 90 min occlusion, 2.5 h reperfusion); format: in vivo, pigs; settings: 0.3 mg/kg i.v. after 75 min of ischemia
Experimental: Pigs were fed a hypercholesterolemic diet as in Example 11. After this 10-day diet period animals underwent a closed-chest 90 min mid-left anterior descending (LAD) coronary balloon occlusion. After 75 min of ischemia animals were randomized to intravenous infusion (femoral vein) of an active β-hydroxy acid derivative of simvastatin (R—OH—S; 0.3 mg/kg; n=12) or vehicle (0.9% NaCl; n=12). At minute 90, the balloon was deflated to achieve coronary artery reperfusion. Animals were reperfused for 2.5 h. Infarct size was determined morphometrically by Evan's Blue staining. To that end, 2.5 h post-reperfusion Evan's Blue dye was injected in the anesthetized pigs through the left atrium to outline the area-at-risk (AAR) after which the animals' hearts were arrested with potassium chloride and rapidly excised. Hearts were sectioned into 6 transverse slices parallel to the atrioventricular ring. Consecutive slices were alternatively collected for infarct size analysis (triphenyl tetrazolium chloride) and molecular studies of the ischemic and non-ischemic myocardium. Tissue samples obtained from the ischemic and non-ischemic myocardium all animals were pulverized and homogenized in Tripure® or lysis buffer for RNA and protein isolation, respectively. Protein levels of apoptosis markers (truncated-caspase-3) was assessed. Paraffin-embedded ischemic myocardial tissue of all animals was cut into 5-μm-thick slices for 8-hydroxyguanosine staining (Abcam ab48508), a measurement indicative of oxidative stress-induced DNA-damage, and OCT-embedded ischemic myocardial tissue of all animals was stained for neutrophil detection (anti-Neutrophil Elastase; Abcam). Staining was calculated by a single blinded observer from an average of 5-fields/animal as % of stained area. Images were captured by Nikon Eclipse 80i microscope and digitized by Retiga 1300i Fast camera. In addition, mitochondrial membrane potential (Δψm) was measured in the ischemic myocardium of all animals by flow cytometry using the ratiometric dye 5,5′,6,6′-tetrachloro-1,1′,3,3′-tetraethylbenzimidazol carbocyanine iodide (JC-1; Molecular Probes). Values were expressed as red fluorescence activity. Isolated mitochondria treated with valinomycin (Sigma), which decreases Δψm, were used as control (data not shown).

[8] = ischemic myocardium, vs non-treated pigs
[9] = prior (0 min) or post (90 min) ischemic induction
[10] = 30, 60 and 90 min after MI induction, vs controls
[11] = 90 min ischemic period, vs absence of treatment
[12] = ischemic myocardial tissue, 2.5 h reperfusion

SMILES: CC(ONC(=O)c1cc(C(F)(F)F)cc(C(F)(F)F)c1)C(=O)Nc1ccc(Cl)cc1 (stereo not drawn) [CCG1423]
reduction of oxidative damage (8-OH-dG staining) within the ischemic myocardium [1]: 70% | reduction of size of infarction (% of total LV wall) [1]: around 50%

SMILES: c1cc(-c2cnn3cc(-c4ccc(OCCN5CCCCC5)cc4)cnc23)ccn1 [Compound C]
effect on infarct size reduction achieved by atorvastatin [2]: abolished | effect on protection against oxidative damage (8-OHdG staining) [2]: abolished

SMILES: CC(C)c1c(C(=O)Nc2ccccc2)c(-c2ccccc2)c(-c2ccc(F)cc2)n1CC[C@@H](O)C[C@@H](O)CC(=O)O [atorvastatin]
total amount of RhoA protein in the ischemic myocardium (RhoA; 0.3 mg/kg i.v. at 15 min of ischemia, tissue at 90 min): not affected | RhoA activation in the ischemic myocardium (RhoA; single dose after the onset of ischemia, infarcted pigs): inhibits | levels of cleaved (active) caspase 3 (caspase-3; ischemic myocardium): reduced | total caspase-3 (caspase-3; myocardium): no changes | reduction in neutrophil myocardial infiltration [3]: 57% | ischemia-induced eNOS activation (P-eNOS/eNOS) (eNOS): did not further enhance | MCP-1 mRNA expression (MCP-1/CCL2; [8]): significantly reduced | MCP-1 protein expression (MCP-1/CCL2; [8]): significantly reduced | MCP-1 expression (MCP-1/CCL2; non-ischemic myocardial tissue): No changes | reduction of size of infarction (% of total LV wall) [1]: around 50% | reduction in scar size (rat model for ischemia): 60% | CFABP ([4]; already at 30 min): significant reduction | IMA ([4]; already at 30 min): significant reduction | Myoglobin ([4]; already at 30 min): significant reduction | Percentage of reduction of CFABP ([4]; vs control): 60-75% | Percentage of reduction of IMA ([4]; vs control): 60-75% | Percentage of reduction of Myoglobin ([4]; vs control): 60-75% | ischemia-triggered increase in MCP-1 expression, gene level ([5]; PBMC): markedly attenuated | ischemia-triggered increase in MCP-1 expression, protein level ([5]; PBMC): markedly attenuated | TF PBMC expression (mRNA) [5, 9]: did not modify | TLR4 PBMC expression (mRNA) [5, 9]: did not modify | total protein content of AMPK (AMPK; entire heart): No changes | levels of P-AMPK (AMPK; ischemic myocardium): significantly increased | levels of P-AMPK (AMPK; non-ischemic cardiac tissue): No changes | IMA (Ischemic Modified Albumin) blood levels [6, 10]: significantly reduced | Myoglobin blood levels [6, 10]: significantly reduced | overall reduction of CFABP levels [6, 11]: more than 75% | overall reduction of IMA levels [6, 11]: more than 50% | overall reduction of myoglobin levels [6, 11]: more than 75%

expression of cleaved caspase-3 [7, 12]: significantly reduced
SMILES: CCC(C)(C)C(=O)OC1CC(C)C=C2C=CC(C)C(CCC(O)CC(O)CC(=O)O)C21 (stereo not drawn) [β-OH-simvastatin, β-hydroxy acid form of simvastatin]
size of myocardial damage (ischemic damage+reperfusion damage; infarct size) ([7]; assessed 2.5 h after reperfusion): decreased | mitochondrial potential (JC-1) [7, 12]: preserved | oxidative stress (8-hydroxyguanosine staining) [7, 12]: decreased | recruitment of neutrophils [7, 12]: limited | reduction of size of infarction (% of total LV wall) [1]: around 50%
